# Measured values taken from publication PMC12624743 (ACS Infectious Diseases, 2025).
# How the values were obtained:
# [1] = target: T1, N. gonorrhoeae gyrase GyrA^D90N (Neisseria gonorrhoeae, UniProt P48371, D90N); assay: Gyrase-catalyzed DNA supercoiling assay, GyrA^D90N; assay type: biochemical; conditions: read-out: IC50, inhibition of DNA supercoiling
# T1 construct: His; made in house
# Procedure: All proteins were His-tagged. N. gonorrhoeae WT gyrase (GyrA, GyrB) and topoisomerase IV (ParC, ParE) subunits as well as mutant GyrA^D90N, GyrA^A92T, GyrA^S91F, and GyrA^S91F/D95G gyrase and ParC^D86N and ParC^S88P topoisomerase IV were prepared as described previously. , N. gonorrhoeae mutant GyrA^D95G gyrase and mutant ParC^S87N and ParC^E91G topoisomerase IV were generated using a QuickChange II XL site-directed mutagenesis kit (Agilent Technologies) with custom primers for the desired mutations. […] The identities of all constructs were confirmed by DNA sequencing, and all enzymes were stored at −80 °C. In all assays, N. gonorrhoeae gyrase or topoisomerase IV was used as a 1:1 GyrA:GyrB or ParC:ParE mixture, respectively, and the stated enzyme concentration reflects that of the holoenzyme (A2B2).
# Samples were mixed with 2 μL of loading dye [60% sucrose, 10 mM Tris–HCl (pH 7.9), 0.5% bromophenol blue, and 0.5% xylene cyanol FF] and incubated at 45 °C for 2 min before being subjected to electrophoresis on 1% agarose gels in 100 mM Tris-borate (pH 8.3) and 2 mM EDTA. […] DNA bands were visualized with medium-range ultraviolet light and quantified using an Alpha Innotech digital imaging system (Protein Simple). DNA supercoiling was monitored by the conversion of relaxed to supercoiled plasmid.
# [2] = target: N. gonorrhoeae topoisomerase IV ParC^S87N (Neisseria gonorrhoeae, UniProt P48374, S87N); assay: Topoisomerase IV-catalyzed DNA decatenation assay, ParC^S87N; assay type: biochemical; design: His; made in house
# Sequence of N. gonorrhoeae topoisomerase IV ParC^S87N (P48374 whole entry S87N): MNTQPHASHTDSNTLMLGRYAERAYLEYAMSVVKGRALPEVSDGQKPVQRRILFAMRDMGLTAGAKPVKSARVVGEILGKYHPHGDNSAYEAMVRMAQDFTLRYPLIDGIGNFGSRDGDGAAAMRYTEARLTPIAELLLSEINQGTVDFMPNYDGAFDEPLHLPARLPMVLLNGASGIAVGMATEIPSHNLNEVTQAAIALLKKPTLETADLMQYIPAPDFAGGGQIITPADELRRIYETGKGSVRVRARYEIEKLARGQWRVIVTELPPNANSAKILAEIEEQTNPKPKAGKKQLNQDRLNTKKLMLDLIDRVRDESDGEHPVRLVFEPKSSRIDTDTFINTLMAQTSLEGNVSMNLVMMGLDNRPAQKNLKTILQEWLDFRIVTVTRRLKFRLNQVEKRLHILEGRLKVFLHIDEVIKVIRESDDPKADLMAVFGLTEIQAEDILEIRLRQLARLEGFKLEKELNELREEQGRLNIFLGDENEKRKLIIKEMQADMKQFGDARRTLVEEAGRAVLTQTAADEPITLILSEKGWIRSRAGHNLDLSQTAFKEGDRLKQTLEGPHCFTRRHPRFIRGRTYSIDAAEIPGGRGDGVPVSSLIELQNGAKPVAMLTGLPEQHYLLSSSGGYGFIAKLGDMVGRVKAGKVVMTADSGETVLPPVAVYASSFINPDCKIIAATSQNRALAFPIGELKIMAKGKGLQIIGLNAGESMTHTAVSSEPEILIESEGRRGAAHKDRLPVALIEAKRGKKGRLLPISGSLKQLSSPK
# Procedure: (§1) All proteins were His-tagged. N. gonorrhoeae WT gyrase (GyrA, GyrB) and topoisomerase IV (ParC, ParE) subunits as well as mutant GyrA^D90N, GyrA^A92T, GyrA^S91F, and GyrA^S91F/D95G gyrase and ParC^D86N and ParC^S88P topoisomerase IV were prepared as described previously. , N. gonorrhoeae mutant GyrA^D95G gyrase and mutant ParC^S87N and ParC^E91G topoisomerase IV were generated using a QuickChange II XL site-directed mutagenesis kit (Agilent Technologies) with custom primers for the desired mutations. Mutant N. gonorrhoeae GyrA and ParC subunits were expressed and purified as described by Ashley et al. with the following modifications to optimize protein expression and lysis: (1) GyrA^D95G was expressed for 2.5 h and ParC^S87N and ParC^E91G were expressed for 3 h before harvesting, and (2) cells were lysed by sonication using a digital sonifier (Branson). The identities of all constructs were confirmed by DNA sequencing, and all enzymes were stored at −80 °C. In all assays, N. gonorrhoeae gyrase or topoisomerase IV was used as a 1:1 GyrA:GyrB or ParC:ParE mixture, respectively, and the stated enzyme concentration reflects that of the holoenzyme (A2B2). […]
# [3] = target: T2, N. gonorrhoeae topoisomerase IV ParC^S88P (Neisseria gonorrhoeae, UniProt P48374, S88P); assay: biochemical
# T2 sequence (P48374 1-768 S88P): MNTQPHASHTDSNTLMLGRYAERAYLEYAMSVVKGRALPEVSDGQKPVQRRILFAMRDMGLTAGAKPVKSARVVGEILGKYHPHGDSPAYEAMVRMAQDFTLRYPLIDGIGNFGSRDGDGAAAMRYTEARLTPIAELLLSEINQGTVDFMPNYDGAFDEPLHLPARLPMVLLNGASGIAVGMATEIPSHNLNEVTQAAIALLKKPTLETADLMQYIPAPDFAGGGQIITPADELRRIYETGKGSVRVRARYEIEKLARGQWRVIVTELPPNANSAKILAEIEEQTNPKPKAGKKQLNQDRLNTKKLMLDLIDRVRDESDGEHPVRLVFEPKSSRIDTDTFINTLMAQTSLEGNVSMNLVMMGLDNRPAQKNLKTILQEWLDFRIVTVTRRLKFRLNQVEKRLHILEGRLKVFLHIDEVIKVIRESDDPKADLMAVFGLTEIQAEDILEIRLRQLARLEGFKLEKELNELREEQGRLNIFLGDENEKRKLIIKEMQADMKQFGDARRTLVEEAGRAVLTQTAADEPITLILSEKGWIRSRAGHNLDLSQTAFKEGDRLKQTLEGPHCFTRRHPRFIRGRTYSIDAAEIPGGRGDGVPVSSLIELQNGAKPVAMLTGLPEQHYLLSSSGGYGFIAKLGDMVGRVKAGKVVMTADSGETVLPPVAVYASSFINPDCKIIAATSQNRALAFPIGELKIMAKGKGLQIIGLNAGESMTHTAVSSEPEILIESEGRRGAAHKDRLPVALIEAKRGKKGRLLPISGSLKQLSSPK
# Procedure: Some experiments replaced MgCl2 with an equivalent concentration of CaCl2 (10 mM), or 1.5 mM ATP was added to assay mixtures.
# Reactions were incubated at 37 °C for 30 min with WT and mutant (GyrA^D90N, GyrA^A92T, GyrA^S91F, GyrA^D95G, or GyrA^S91F/D95G) N. gonorrhoeae gyrase, 10 min with WT N. gonorrhoeae topoisomerase IV, and 20 min with mutant (ParC^D86N, ParC^S88P, ParC^S87N, or ParC^E91G) N. gonorrhoeae topoisomerase IV. Enzyme-DNA cleavage complexes were trapped by adding 2 μL of 5% SDS followed by 2 μL of 250 mM EDTA (pH 8.0). Proteinase K was added (2 μL of a 0.8 mg/mL solution), and reaction mixtures were incubated at 45 °C for 30 min to digest the enzyme. Samples were mixed with 2 μL of loading buffer and heated at 45 °C for 2 min prior to electrophoresis in 1% agarose gels in 40 mM Tris-acetate (pH 8.3), and 2 mM EDTA containing 0.5 μg/mL ethidium bromide. DNA bands were visualized by midrange ultraviolet light and quantified using an Alpha Innotech digital imaging system (Protein Simple). Single-stranded DNA cleavage was monitored by the conversion of negatively supercoiled to nicked plasmid molecules.
# [4] = target: T2, N. gonorrhoeae topoisomerase IV ParC^S88P; assay: Topoisomerase IV-catalyzed DNA decatenation assay, ParC^S88P; assay type: biochemical; design: His; made in house
# Procedure: as §1
# T1 sequence (P48371 whole entry D90N): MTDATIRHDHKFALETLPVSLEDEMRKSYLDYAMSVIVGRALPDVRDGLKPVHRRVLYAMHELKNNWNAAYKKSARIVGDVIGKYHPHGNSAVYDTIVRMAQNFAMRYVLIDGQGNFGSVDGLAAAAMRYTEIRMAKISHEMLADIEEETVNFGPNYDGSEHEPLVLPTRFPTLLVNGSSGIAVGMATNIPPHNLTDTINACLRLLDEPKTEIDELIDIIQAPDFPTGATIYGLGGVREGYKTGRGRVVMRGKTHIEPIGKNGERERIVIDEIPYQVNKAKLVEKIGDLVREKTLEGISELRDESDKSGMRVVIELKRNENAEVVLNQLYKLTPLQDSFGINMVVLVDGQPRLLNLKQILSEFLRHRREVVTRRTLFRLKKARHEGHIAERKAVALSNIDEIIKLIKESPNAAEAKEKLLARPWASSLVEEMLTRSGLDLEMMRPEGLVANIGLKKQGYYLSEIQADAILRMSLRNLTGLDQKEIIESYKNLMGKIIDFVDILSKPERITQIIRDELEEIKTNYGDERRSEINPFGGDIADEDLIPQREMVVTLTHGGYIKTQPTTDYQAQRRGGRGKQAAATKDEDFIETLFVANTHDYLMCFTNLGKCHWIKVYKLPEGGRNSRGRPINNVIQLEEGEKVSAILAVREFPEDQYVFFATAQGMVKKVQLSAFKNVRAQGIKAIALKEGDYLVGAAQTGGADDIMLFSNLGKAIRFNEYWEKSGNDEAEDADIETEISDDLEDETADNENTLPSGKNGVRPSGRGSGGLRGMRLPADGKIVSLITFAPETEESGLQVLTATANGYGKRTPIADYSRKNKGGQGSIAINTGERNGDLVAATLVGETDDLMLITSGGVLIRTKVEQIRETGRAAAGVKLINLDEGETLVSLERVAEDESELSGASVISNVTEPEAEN
# T1 sequence (P22118 whole entry partner): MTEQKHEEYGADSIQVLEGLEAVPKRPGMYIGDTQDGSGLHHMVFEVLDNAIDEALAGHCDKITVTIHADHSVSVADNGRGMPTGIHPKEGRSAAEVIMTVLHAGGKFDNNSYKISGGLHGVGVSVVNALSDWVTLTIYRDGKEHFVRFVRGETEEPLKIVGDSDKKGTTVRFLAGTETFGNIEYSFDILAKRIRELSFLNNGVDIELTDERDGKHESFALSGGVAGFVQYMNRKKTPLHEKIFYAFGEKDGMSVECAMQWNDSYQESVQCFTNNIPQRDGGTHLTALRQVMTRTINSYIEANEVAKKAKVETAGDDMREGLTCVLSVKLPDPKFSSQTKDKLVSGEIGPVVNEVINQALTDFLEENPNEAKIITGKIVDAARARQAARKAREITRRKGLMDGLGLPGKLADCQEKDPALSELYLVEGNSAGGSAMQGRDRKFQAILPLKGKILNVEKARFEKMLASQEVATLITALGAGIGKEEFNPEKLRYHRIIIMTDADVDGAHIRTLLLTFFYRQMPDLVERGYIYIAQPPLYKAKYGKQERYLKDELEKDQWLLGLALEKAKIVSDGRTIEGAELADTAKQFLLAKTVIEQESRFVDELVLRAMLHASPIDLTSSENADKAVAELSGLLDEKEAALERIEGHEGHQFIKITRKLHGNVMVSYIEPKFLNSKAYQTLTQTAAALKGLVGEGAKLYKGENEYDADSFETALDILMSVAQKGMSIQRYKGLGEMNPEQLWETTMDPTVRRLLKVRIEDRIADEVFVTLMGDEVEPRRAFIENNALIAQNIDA
smiles,measurement,setting,value
O=c1ccc2ncc(=O)n3c2n1C[C@H]3CN1CCC(NCc2cc3c(cn2)OCCC3)CC1 [gepotidacin],IC50,[1],> 100000 nM
same,IC50,[2],800 nM
same,EC50,[3],200 nM
same,IC50,[4],1200 nM
same,effect of mutation on gepotidacin susceptibility in decatenation assays,[4]; ParC S88P vs WT,no effect
